Data from PMC11406361, “Several orphan solute carriers functionally identified as organic cation transporters: Substrates specificity compared with known cation transporters” (The Journal of Biological Chemistry, 2024).

Legend:
SLC19A2 = biological target: T1, SLC19A2 (Homo sapiens, UniProt O60779); assay: Uptake ratio screen, SLC19A2-overexpressing HEK293 over empty vector cells; format: cell-based; conditions: 2.5 μM, 2 min
T1 construct: expressed in transfected cells
T1 sequence (O60779 1-497): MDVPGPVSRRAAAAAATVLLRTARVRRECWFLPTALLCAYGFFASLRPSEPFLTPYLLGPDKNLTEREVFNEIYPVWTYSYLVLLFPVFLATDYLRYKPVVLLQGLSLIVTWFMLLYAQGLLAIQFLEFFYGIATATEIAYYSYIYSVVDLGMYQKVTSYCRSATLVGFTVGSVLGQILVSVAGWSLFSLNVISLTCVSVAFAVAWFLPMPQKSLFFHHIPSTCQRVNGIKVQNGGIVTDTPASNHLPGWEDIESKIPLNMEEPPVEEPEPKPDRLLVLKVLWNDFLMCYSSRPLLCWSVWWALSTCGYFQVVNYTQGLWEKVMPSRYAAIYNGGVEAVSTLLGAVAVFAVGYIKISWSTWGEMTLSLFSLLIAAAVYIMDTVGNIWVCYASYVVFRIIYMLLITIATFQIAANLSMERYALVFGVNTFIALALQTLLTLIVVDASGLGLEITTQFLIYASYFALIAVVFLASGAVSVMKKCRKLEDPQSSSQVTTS
Protocol: (§1) Typically discussed substrates of the proton organic-cation antiporter ([14]) are highlighted in dark green in Figure 1.
In preparation for transport experiments, 24-well plates were pre-coated with poly-D-lysine (Sigma-Aldrich) and 300,000 cells were plated per well and incubated for 48 h. Firstly, the 24-well plate was placed on a heating plate at 37 °C, and the cells were washed with 37 °C HBSS^+ buffer (Hank’s balanced salt solution supplemented with 10 mM Hepes and adjusted to pH 7.4; Thermo Fisher Scientific). The substance-of-interest, which was diluted in 37 °C HBSS^+ to a desired concentration, was added to the cells for exactly 2 min. […] The uptake was stopped with ice-cold HBSS^+, and the 24-well plate was removed from the heating plate. The cells were washed twice with the cold HBSS^+ before they were lysed for 15 min with 80% (v/v) acetonitrile containing the respective internal standard for mass spectrometry. For variations in seeded cell numbers between the cell lines, several wells were lysed in RIPA buffer and used for total protein quantification using a bicinchoninic assay ([74]) and bovine serum albumin as calibration.
The intracellular drug concentrations after transport experiments were analyzed by high-performance liquid chromatography coupled to tandem mass spectrometry analysis. The HPLC consisted of a Shimadzu Nexera HPLC System with a SIL-30AC autosampler, a LC-30AD pump, a CTO-20AC column oven, and a CBM-20A controller (Shimadzu). The reverse-phase chromatography of compounds was accomplished with a Brownlee SPP RP-Amide column with 4.6 × 100 mm inner dimensions, a particle size of 2.7 μm, and a preceding Phenomenex C-18 guard column. […] After separation, the detection of substances was performed with an API 4000 tandem mass spectrometer (AB SCIEX, https://sciex.com/support/software-support/software-downloads), followed by quantification of results with the Analyst software (AB SCIEX, version 1.6.2). […]
Transport-mediated net uptake was determined as fold-increase of transporter-overexpressing cells over empty vector–transfected control cells.

SLC19A3 = biological target: T2, SLC19A3 (Homo sapiens, UniProt Q9BZV2); assay: Uptake ratio screen, SLC19A3-overexpressing HEK293 over empty vector cells; format: cell-based; conditions: 2.5 μM, 2 min
T2 construct: expressed in transfected cells
T2 sequence (Q9BZV2 whole entry): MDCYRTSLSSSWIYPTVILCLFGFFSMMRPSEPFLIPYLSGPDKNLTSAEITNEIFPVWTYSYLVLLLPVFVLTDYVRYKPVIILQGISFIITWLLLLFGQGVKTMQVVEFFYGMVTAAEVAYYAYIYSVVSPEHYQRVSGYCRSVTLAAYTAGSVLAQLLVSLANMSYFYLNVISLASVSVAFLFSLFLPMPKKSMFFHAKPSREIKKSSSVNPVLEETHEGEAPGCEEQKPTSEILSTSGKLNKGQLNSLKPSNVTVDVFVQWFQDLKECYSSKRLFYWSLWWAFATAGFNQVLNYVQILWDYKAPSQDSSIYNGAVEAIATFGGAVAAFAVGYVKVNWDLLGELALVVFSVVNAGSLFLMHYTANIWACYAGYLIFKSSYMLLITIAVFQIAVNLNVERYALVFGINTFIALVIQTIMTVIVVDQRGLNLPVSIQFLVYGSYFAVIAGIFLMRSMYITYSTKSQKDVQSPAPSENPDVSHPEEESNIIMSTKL
Protocol: as §1
In preparation for transport experiments, 24-well plates were pre-coated with poly-D-lysine (Sigma-Aldrich) and 300,000 cells were plated per well and incubated for 48 h. Firstly, the 24-well plate was placed on a heating plate at 37 °C, and the cells were washed with 37 °C HBSS^+ buffer (Hank’s balanced salt solution supplemented with 10 mM Hepes and adjusted to pH 7.4; Thermo Fisher Scientific). The substance-of-interest, which was diluted in 37 °C HBSS^+ to a desired concentration, was added to the cells for exactly 2 min. […] For variations in seeded cell numbers between the cell lines, several wells were lysed in RIPA buffer and used for total protein quantification using a bicinchoninic assay ([74]) and bovine serum albumin as calibration.
The intracellular drug concentrations after transport experiments were analyzed by high-performance liquid chromatography coupled to tandem mass spectrometry analysis. […] After separation, the detection of substances was performed with an API 4000 tandem mass spectrometer (AB SCIEX, https://sciex.com/support/software-support/software-downloads), followed by quantification of results with the Analyst software (AB SCIEX, version 1.6.2). […]

SLC35E1 = SLC35E1 (Homo sapiens, UniProt Q96K37)
SLC35E1, sequence (Q96K37 whole entry): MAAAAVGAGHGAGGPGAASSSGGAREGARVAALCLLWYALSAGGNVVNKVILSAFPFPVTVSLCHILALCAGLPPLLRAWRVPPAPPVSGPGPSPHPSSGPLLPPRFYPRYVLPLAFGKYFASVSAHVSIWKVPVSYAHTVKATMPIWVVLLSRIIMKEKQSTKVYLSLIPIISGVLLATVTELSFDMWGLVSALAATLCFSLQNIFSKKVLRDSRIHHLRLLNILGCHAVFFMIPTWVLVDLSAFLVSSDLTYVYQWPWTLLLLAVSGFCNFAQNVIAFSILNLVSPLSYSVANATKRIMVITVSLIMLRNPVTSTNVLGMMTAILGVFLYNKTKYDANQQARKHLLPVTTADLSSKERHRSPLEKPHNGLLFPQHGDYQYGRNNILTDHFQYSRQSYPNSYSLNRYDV

SLC35E4 = biological target: T3, SLC35E4 (Homo sapiens, UniProt Q6ICL7)
T3 sequence (Q6ICL7 1-350): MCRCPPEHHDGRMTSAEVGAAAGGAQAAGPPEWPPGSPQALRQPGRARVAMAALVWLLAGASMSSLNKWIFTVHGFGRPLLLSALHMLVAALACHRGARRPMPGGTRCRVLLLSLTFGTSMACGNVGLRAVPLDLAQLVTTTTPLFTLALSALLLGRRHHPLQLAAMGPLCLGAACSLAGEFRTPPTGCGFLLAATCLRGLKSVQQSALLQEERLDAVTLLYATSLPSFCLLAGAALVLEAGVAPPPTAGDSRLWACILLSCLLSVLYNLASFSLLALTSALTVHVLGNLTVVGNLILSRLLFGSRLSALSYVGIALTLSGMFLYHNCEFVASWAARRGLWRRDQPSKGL

SLC35F2 = biological target: T4, SLC35F2 (Homo sapiens, UniProt Q8IXU6); conditions: human
T4 sequence (Q8IXU6 1-374): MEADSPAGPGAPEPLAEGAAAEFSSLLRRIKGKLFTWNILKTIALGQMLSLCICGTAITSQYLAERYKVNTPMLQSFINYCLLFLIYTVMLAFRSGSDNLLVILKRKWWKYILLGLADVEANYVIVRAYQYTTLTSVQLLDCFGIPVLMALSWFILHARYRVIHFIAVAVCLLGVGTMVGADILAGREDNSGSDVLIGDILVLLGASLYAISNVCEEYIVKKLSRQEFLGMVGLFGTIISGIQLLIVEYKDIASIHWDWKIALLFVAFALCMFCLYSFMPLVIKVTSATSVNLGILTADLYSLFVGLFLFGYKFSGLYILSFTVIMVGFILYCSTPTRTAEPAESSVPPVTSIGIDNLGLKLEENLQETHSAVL

SLC35F3 = SLC35F3 (Homo sapiens, UniProt Q8IY50)
SLC35F3, sequence (Q8IY50 whole entry): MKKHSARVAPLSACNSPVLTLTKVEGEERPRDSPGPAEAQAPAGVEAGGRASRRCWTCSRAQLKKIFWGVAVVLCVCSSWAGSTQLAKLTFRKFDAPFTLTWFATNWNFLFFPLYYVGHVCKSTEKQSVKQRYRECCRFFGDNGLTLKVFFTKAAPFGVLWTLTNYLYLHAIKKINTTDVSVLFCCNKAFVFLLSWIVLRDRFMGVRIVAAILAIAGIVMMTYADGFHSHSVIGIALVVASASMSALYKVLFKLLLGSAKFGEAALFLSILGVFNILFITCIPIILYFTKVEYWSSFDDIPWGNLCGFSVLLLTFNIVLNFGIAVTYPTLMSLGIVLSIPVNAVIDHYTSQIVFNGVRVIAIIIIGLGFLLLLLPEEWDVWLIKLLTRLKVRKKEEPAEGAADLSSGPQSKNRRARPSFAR

SLC44A1 = SLC44A1 (Homo sapiens, UniProt Q8WWI5)
SLC44A1, sequence (Q8WWI5 whole entry): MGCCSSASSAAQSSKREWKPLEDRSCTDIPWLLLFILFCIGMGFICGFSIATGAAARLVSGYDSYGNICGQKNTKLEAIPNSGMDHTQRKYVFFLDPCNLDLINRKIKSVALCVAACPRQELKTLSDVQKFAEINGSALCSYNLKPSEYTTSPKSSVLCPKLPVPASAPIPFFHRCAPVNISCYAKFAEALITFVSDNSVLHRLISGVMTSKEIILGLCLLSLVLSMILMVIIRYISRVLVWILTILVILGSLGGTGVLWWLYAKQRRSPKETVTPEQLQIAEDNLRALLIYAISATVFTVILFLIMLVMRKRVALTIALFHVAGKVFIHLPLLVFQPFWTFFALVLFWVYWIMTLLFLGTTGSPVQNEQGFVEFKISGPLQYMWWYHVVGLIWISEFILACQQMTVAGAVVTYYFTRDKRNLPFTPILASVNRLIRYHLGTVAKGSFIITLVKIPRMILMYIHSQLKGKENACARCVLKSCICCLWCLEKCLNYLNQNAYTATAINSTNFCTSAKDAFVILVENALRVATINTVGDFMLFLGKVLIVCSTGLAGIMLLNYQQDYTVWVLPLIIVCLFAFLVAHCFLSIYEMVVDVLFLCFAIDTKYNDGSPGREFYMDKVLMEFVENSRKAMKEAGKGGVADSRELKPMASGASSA

SLC5A7 = conditions: read-out: KM of choline transport by SLC5A7; high-affinity choline transporter; ref [46]; cited from earlier work

SMILES: C[N+](C)(C)CCO [Choline]
- Uptake by SLC19A2 (in words) (SLC19A2): enhance cell uptake
- Uptake by SLC19A3 (in words) (SLC19A3): transports
- Clint (±SEM) (SLC35E1): 0.95 (±0.57) μl × mg protein^-1 × min^-1
- Clint (±SEM) (SLC35E4): 0.17 (±0.36) μl × mg protein^-1 × min^-1
- Clint (±SEM) (SLC35F2): 2.48 (±1.47) μl × mg protein^-1 × min^-1
- Clint (±SEM) (SLC35F3): 1.21 (±1.36) μl × mg protein^-1 × min^-1
- Clint (±SEM) (SLC44A1): 2.08 (±1.79) μl × mg protein^-1 × min^-1
- Km (SLC5A7): 2 µM
